Results as given in paper PMC5645029 (Journal of medicinal chemistry, 2017).
“Also recorded” adds a separate entry of the source. Non-standard residues stand in square brackets, D forms with d. Residues, ends and D or L forms follow the SMILES beside them.

Tests used:
[1] = molecular target: T1, mMC4R (Mus musculus, UniProt P56450); settings: for fold less potent at the MC4R compared to 1: antagonist potency relative to 1
[2] = molecular target: T2, mMC5R (Mus musculus, UniProt P41149); assay: cell-based
T2 sequence (P41149 whole entry): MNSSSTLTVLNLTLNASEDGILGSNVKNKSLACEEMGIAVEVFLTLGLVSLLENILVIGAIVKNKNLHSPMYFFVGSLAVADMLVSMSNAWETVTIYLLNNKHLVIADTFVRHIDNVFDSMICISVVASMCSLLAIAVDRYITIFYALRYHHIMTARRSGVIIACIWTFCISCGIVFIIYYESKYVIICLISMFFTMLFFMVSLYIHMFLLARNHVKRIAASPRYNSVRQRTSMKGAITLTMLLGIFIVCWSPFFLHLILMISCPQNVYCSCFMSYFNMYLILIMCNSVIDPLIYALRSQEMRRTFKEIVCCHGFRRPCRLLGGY

[3] = molecular target: T3, mMC3R (Mus musculus, UniProt P33033); assay: AlphaScreen cAMP assay, antagonist activity; settings: Schild paradigm, NDP-MSH
T3 sequence (P33033 whole entry): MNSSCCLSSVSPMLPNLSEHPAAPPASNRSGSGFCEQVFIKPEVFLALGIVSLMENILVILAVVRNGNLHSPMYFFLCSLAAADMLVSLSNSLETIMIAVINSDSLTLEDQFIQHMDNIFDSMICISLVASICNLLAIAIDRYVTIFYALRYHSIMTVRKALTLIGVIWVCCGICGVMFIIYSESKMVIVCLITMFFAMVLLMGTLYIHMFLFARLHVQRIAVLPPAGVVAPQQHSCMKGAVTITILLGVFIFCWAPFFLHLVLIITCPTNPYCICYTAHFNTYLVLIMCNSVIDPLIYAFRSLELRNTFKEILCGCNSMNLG

[4] = molecular target: mMC1R (Mus musculus, UniProt Q01727); assay: AlphaScreen cAMP assay, agonist activity; settings: up to 100 μM concentrations
Sequence of mMC1R (Q01727 whole entry): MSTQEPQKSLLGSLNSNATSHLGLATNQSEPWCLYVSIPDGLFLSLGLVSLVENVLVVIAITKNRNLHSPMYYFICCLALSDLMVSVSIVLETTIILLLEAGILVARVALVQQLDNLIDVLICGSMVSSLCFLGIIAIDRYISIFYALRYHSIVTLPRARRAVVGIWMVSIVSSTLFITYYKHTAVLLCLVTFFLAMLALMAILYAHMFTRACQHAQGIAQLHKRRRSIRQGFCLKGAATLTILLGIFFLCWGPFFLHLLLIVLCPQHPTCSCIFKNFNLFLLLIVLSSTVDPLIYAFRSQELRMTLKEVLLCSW

[5] = molecular target: T3, mMC3R; assay: AlphaScreen cAMP assay, agonist activity; settings: up to 100 μM concentrations
[6] = molecular target: T1, mMC4R; assay: AlphaScreen cAMP assay, agonist activity; settings: up to 100 μM concentrations
[7] = molecular target: T2, mMC5R
[8] = molecular target: mouse melanocortin-5 receptor (mouse) (UniProt P41149)
Sequence of mouse melanocortin-5 receptor (mouse) (P41149 whole entry): as the sequence (P41149 whole entry) above

T1 sequence (P56450 whole entry): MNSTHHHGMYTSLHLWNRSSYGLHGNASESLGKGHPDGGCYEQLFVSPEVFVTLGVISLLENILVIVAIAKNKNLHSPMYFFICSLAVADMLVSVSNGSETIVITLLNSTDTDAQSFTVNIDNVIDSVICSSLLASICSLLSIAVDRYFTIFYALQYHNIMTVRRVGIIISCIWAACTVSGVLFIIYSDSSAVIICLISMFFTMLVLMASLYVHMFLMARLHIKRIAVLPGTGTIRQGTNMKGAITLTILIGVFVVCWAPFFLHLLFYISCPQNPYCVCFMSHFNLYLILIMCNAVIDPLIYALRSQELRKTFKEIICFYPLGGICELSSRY

Molecule | EC50 [2] [nM] | agonist activity at the MC1R (in words) [4] | agonist activity at the MC3R (in words) [5] | agonist activity at the MC4R (in words) [6] | antagonist activity at the MC3R (in words) [3] | activity at the MC5R (in words) [7] | also measured
C[C@@H]1NC(=O)[C@H](C)NC(=O)[C@H](Cc2ccccc2)NC(=O)[C@H](Cc2ccccc2)NC(=O)[C@H](CCCNC(=N)N)NC(=O)[C@@H]2CCCN2C(=O)[C@H]2CCCN2C(=O)[C@H](Cc2ccccc2)NC1=O [Peptide 3, c[Pro-Arg-Phe-Phe-Ala-Ala-Phe-DPro]] | 250 | – | – | – | did not possess antagonist activity | – | fold less potent at the MC4R compared to 1 [1]: 8 fold
CC[C@@H]1NC(=O)[C@H](Cc2ccccc2)NC(=O)[C@H](Cc2ccccc2)NC(=O)[C@H](CCCNC(=N)N)NC(=O)[C@@H]2CCCN2C(=O)[C@H]2CCCN2C(=O)[C@H](Cc2ccccc2)NC(=O)[C@H](C)NC1=O [Peptide 4, c[Pro-Arg-Phe-Phe-Abu-Ala-Phe-DPro]] | 160 | – | – | – | did not possess antagonist activity | – | –
C[C@@H]1NC(=O)[C@H](CO)NC(=O)[C@H](Cc2ccccc2)NC(=O)[C@H](Cc2ccccc2)NC(=O)[C@H](CCCNC(=N)N)NC(=O)[C@@H]2CCCN2C(=O)[C@H]2CCCN2C(=O)[C@H](Cc2ccccc2)NC1=O [Peptide 5, c[Pro-Arg-Phe-Phe-Ser-Ala-Phe-DPro]] | 140 | No agonist activity | No agonist activity | No agonist activity | – | – | –
CCCC[C@@H]1NC(=O)[C@H](Cc2ccccc2)NC(=O)[C@H](Cc2ccccc2)NC(=O)[C@H](CCCNC(=N)N)NC(=O)[C@@H]2CCCN2C(=O)[C@H]2CCCN2C(=O)[C@H](Cc2ccccc2)NC(=O)[C@H](C)NC1=O [Peptide 11, c[Pro-Arg-Phe-Phe-Nle-Ala-Phe-DPro]] | – | – | – | – | – | no activity | fold less potent at the MC4R compared to 1 [1]: at least 8 fold
CC(C)[C@@H]1NC(=O)[C@H](Cc2ccccc2)NC(=O)[C@H](Cc2ccccc2)NC(=O)[C@H](CCCNC(=N)N)NC(=O)[C@@H]2CCCN2C(=O)[C@H]2CCCN2C(=O)[C@H](Cc2ccccc2)NC(=O)[C@H](C)NC1=O [Peptide 13, c[Pro-Arg-Phe-Phe-Val-Ala-Phe-DPro]] | 510 | – | – | – | – | – | fold less potent at the MC4R compared to 1 [1]: at least 8 fold
C[C@@H]1NC(=O)[C@H](Cc2ccccc2)NC(=O)[C@H](Cc2ccccc2)NC(=O)[C@H](Cc2ccccc2)NC(=O)[C@H](CCCNC(=N)N)NC(=O)[C@@H]2CCCN2C(=O)[C@H]2CCCN2C(=O)[C@H](Cc2ccccc2)NC1=O [Peptide 14, c[Pro-Arg-Phe-Phe-Phe-Ala-Phe-DPro]] | – | – | – | – | – | no activity | –
N=C(N)NCCC[C@@H]1NC(=O)[C@@H]2CCCN2C(=O)[C@H]2CCCN2C(=O)[C@H](Cc2ccccc2)NC(=O)[C@H](CC(=O)O)NC(=O)[C@H](CC(N)=O)NC(=O)[C@H](Cc2ccccc2)NC(=O)[C@H](Cc2ccccc2)NC1=O [Peptide 16, c[Pro-Arg-Phe-Phe-Asn-Asp-Phe-DPro]] (cyclo(RFFNDF[dP]P)) | – | – | did not result in observable agonist or antagonist activity | did not result in observable agonist or antagonist activity | did not result in observable agonist or antagonist activity; also recorded: did not possess antagonist activity | – | –
N=C(N)NCCC[C@@H]1NC(=O)[C@@H]2CCCN2C(=O)[C@H]2CCCN2C(=O)[C@H](Cc2ccccc2)NC(=O)[C@H](CCC(=O)O)NC(=O)[C@H](CC(N)=O)NC(=O)[C@H](Cc2ccccc2)NC(=O)[C@H](Cc2ccccc2)NC1=O [Peptide 17, c[Pro-Arg-Phe-Phe-Asn-Glu-Phe-DPro]] (cyclo(RFFNEF[dP]P)) | – | – | did not result in observable agonist or antagonist activity | did not result in observable agonist or antagonist activity | did not result in observable agonist or antagonist activity; also recorded: did not possess antagonist activity | no activity | –
N=C(N)NCCC[C@@H]1NC(=O)[C@@H]2CCCN2C(=O)[C@H]2CCCN2C(=O)[C@H](Cc2ccccc2)NC(=O)[C@H](CCCCN)NC(=O)[C@H](CC(N)=O)NC(=O)[C@H](Cc2ccccc2)NC(=O)[C@H](Cc2ccccc2)NC1=O [Peptide 18, c[Pro-Arg-Phe-Phe-Asn-Lys-Phe-DPro]] | – | – | – | – | – | partially stimulated | –
N=C(N)NCCC[C@@H]1NC(=O)[C@@H]2CCCN2C(=O)[C@H]2CCCN2C(=O)[C@H](Cc2ccccc2)NC(=O)[C@H](Cc2ccccc2)NC(=O)[C@H](CC(N)=O)NC(=O)[C@H](Cc2ccccc2)NC(=O)[C@H](Cc2ccccc2)NC1=O [Peptide 20, c[Pro-Arg-Phe-Phe-Asn-Phe-Phe-DPro]] | – | – | – | – | – | partially stimulated | –
CC(C)C[C@@H]1NC(=O)[C@H](CC(N)=O)NC(=O)[C@H](Cc2ccccc2)NC(=O)[C@H](Cc2ccccc2)NC(=O)[C@H](CCCNC(=N)N)NC(=O)[C@@H]2CCCN2C(=O)[C@H]2CCCN2C(=O)[C@H](Cc2ccccc2)NC1=O [Peptide 22, c[Pro-Arg-Phe-Phe-Asn-Leu-Phe-DPro]] | – | – | – | – | – | no activity | –
cyclo(PRFFNLF[dP]) (SMILES CC(C)C[C@@H]1NC(=O)[C@H](CC(N)=O)NC(=O)[C@H](Cc2ccccc2)NC(=O)[C@H](Cc2ccccc2)NC(=O)[C@H](CCCNC(=N)N)NC(=O)[C@@H]2CCCN2C(=O)[C@H]2CCCN2C(=O)[C@H](Cc2ccccc2)NC1=O) [c[Pro-Arg-Phe-Phe-Asn-Leu-Phe-DPro]] | – | – | – | – | – | – | agonist EC50 (cAMP AlphaScreen, HEK293 cells stably expressing the receptor) [8]: > 100000 nM

The next lines start with results.

EC50 [2] [nM] | agonist activity at the MC1R (in words) [4] | agonist activity at the MC3R (in words) [5] | agonist activity at the MC4R (in words) [6] | Molecule | antagonist activity at the MC3R (in words) [3] | activity at the MC5R (in words) [7] | also measured
50 | No agonist activity | No agonist activity | No agonist activity | C[C@@H]1NC(=O)[C@H]([C@@H](C)O)NC(=O)[C@H](Cc2ccccc2)NC(=O)[C@H](Cc2ccccc2)NC(=O)[C@H](CCCNC(=N)N)NC(=O)[C@@H]2CCCN2C(=O)[C@H]2CCCN2C(=O)[C@H](Cc2ccccc2)NC1=O [Peptide 6, c[Pro-Arg-Phe-Phe-Thr-Ala-Phe-DPro]] (cyclo(RFFTAF[dP]P)) | – | – | fold more potent at the MC4R compared to 13 ([1]; antagonist potency relative to 13): 70 fold
– | no agonist activity | no agonist activity | no agonist activity | C[C@@H]1NC(=O)[C@H](CC(=O)O)NC(=O)[C@H](Cc2ccccc2)NC(=O)[C@H](Cc2ccccc2)NC(=O)[C@H](CCCNC(=N)N)NC(=O)[C@@H]2CCCN2C(=O)[C@H]2CCCN2C(=O)[C@H](Cc2ccccc2)NC1=O [Peptide 7, c[Pro-Arg-Phe-Phe-Asp-Ala-Phe-DPro]] | did not possess antagonist activity | – | –
700 | – | did not result in measurable activity | – | C[C@@H]1NC(=O)[C@H](CCC(=O)O)NC(=O)[C@H](Cc2ccccc2)NC(=O)[C@H](Cc2ccccc2)NC(=O)[C@H](CCCNC(=N)N)NC(=O)[C@@H]2CCCN2C(=O)[C@H]2CCCN2C(=O)[C@H](Cc2ccccc2)NC1=O [Peptide 8, c[Pro-Arg-Phe-Phe-Glu-Ala-Phe-DPro]] | did not result in measurable activity | – | fold less potent at the MC4R compared to 1 [1]: 16 fold
110 | no agonist activity | no agonist activity | no agonist activity | C[C@@H]1NC(=O)[C@@H](CN)NC(=O)[C@H](Cc2ccccc2)NC(=O)[C@H](Cc2ccccc2)NC(=O)[C@H](CCCNC(=N)N)NC(=O)[C@@H]2CCCN2C(=O)[C@H]2CCCN2C(=O)[C@H](Cc2ccccc2)NC1=O [Peptide 9, c[Pro-Arg-Phe-Phe-DDap-Ala-Phe-DPro]] | – | – | –
10 | no agonist activity | no agonist activity | no agonist activity | C[C@@H]1NC(=O)[C@H](Cc2c[nH]cn2)NC(=O)[C@H](Cc2ccccc2)NC(=O)[C@H](Cc2ccccc2)NC(=O)[C@H](CCCNC(=N)N)NC(=O)[C@@H]2CCCN2C(=O)[C@H]2CCCN2C(=O)[C@H](Cc2ccccc2)NC1=O [Peptide 10, c[Pro-Arg-Phe-Phe-His-Ala-Phe-DPro]] | – | – | mMC5R inverse agonist, percent decrease from basal [7]: 10%
110 | – | – | – | CC(C)C[C@@H]1NC(=O)[C@H](Cc2ccccc2)NC(=O)[C@H](Cc2ccccc2)NC(=O)[C@H](CCCNC(=N)N)NC(=O)[C@@H]2CCCN2C(=O)[C@H]2CCCN2C(=O)[C@H](Cc2ccccc2)NC(=O)[C@H](C)NC1=O [Peptide 12, c[Pro-Arg-Phe-Phe-Leu-Ala-Phe-DPro]] (cyclo(RFFLAF[dP]P)) | – | – | fold less potent at the MC4R compared to 1 [1]: at least 8 fold
– | did not possess agonist activity | did not possess agonist activity | did not possess agonist activity | N=C(N)NCCC[C@@H]1NC(=O)[C@@H]2CCCN2C(=O)[C@H]2CCCN2C(=O)[C@H](Cc2ccccc2)NC(=O)[C@H](CO)NC(=O)[C@H](CC(N)=O)NC(=O)[C@H](Cc2ccccc2)NC(=O)[C@H](Cc2ccccc2)NC1=O [Peptide 21, c[Pro-Arg-Phe-Phe-Asn-Ser-Phe-DPro]] (cyclo(RFFNSF[dP]P)) | – | – | –
